Test results: patent US10413505B1, “Pharmaceutical compositions and methods of using the same” (priority 2017, dated 2019)
Where “and” joins values, the source holds several entries; their conditions need not be identical. Identical values can stand only once.

How the values were obtained:
[1] = Example 3 urinary pharmacokinetics, normal hepatic function vs hepatic impairment; assay type: in vivo, human; details: for Urine Recovery as % of Dose, Geomean / Urine Recovery as % of Dose, Mean: 0-32 h, single intranasal dose; for CLr Geomean / CLr Mean: Table 26
Procedure: Urine was collected prior to dosing and from 0-2, 2-4, 4-8, 8-12, 12-24, and 24-32 hours after beginning of dose application. […] Urinary pharmacokinetic parameters included total urinary recovery (μg), urinary recovery as a percentage of dose, and CLr.

[2] = Example 2 plasma pharmacokinetics, normal renal function vs severe renal impairment
[3] = Example 2 urinary pharmacokinetics, normal renal function vs severe renal impairment; details: single intranasal 160 mg cocaine HCl; for 0 to 32 hour urinary recovery (geometric mean) / 0 to 32 hour urinary recovery (mean) / 0 to 32 hour urinary recovery (median): metabolites as cocaine equivalents
Procedure: For the urine analysis of cocaine, BE, and EME, individual urinary recoveries for each analyte were determined over each collection interval as the product of the urine concentration times the urine volume. The total recoveries were determined as the sum of the recoveries over all the intervals. Total urinary recoveries were also expressed as the percentage of the administered dose, after correction for the molecular weight of each analyte. The renal clearances of cocaine, BE, and EME were determined as the urinary recovery (in μg) divided by the plasma AUC over the same time interval (the longest period for which both plasma and urine measurements were available).
Urine was collected prior to dosing and from 0-2, 2-4, 4-8, 8-12, 12-24, and 24-32 hours after the beginning of dose application. […] Testing methods used were consistent with those used by inVentiv Health Clinical Lab, Inc., Miami, Fla., U.S.A. Urinary pharmacokinetic parameters included total urinary recovery (μg), urinary recovery as a percentage of dose, and CLr.

[4] = Benzoylecgonine solubility in water; assay type: physicochemical; details: deionized water vehicle
Procedure: Deionized water was chosen as the vehicle for this study to avoid any vehicle-related local toxicity. Benzoylecgonine is soluble in water up to approximately 40 mg/mL.

[5] = normal hepatic function, single intranasal 160 mg cocaine HCl
[6] = subjects with hepatic impairment
[7] = subjects with hepatic impairment, 32 hours post administration
[8] = subjects with hepatic impairment, Table 30
[9] = subjects with normal hepatic function
[10] = subjects with normal hepatic function, Table 29
[11] = normal renal function, single intranasal 160 mg cocaine HCl, plasma
[12] = severe renal impairment, single intranasal 160 mg cocaine HCl, plasma
[13] = normal renal function, listed as Benzoylecgonine
[14] = severe renal impairment, listed as Benzoylecgonine

## CN1[C@H]2CC[C@@H]1[C@@H](C(=O)O)[C@@H](OC(=O)c1ccccc1)C2 [BE, benzoylecgonine]
[1]; Impaired hepatic function
  Urine Recovery as % of Dose, Geomean: 2.74 % of Dose
  Urine Recovery as % of Dose, Mean: 3.30 % of Dose
  CLr Geomean: 2.59 L/h
  CLr Mean: 2.90 L/h
[1]; Normal hepatic function
  Urine Recovery as % of Dose, Geomean: 1.42 % of Dose
  Urine Recovery as % of Dose, Mean: 1.73 % of Dose
  CLr Geomean: 3.96 L/h
  CLr Mean: 4.30 L/h
[1]; [5]
  0-32 h Urinary Recovery (geometric mean): 1928.3 µg
  0-32 h Urinary Recovery (mean): 2359.75 µg
  0-32 h Urinary Recovery (median): 2098.9 µg
[1]; [6]
  Renal Clearance, geometric mean: 43.11 mL/min
  Renal Clearance, mean: 48.27 mL/min
  Renal Clearance, median: 47.80 mL/min
[1]; [7]
  0-32 h Urinary Recovery (geometric mean): 3735.6 µg
  0-32 h Urinary Recovery (mean): 4500 µg
  0-32 h Urinary Recovery (median): 3283.7 µg
[1]; [8]
  Renal Clearance, geometric mean: 43.11 mL/min
  Renal Clearance, mean: 48.273 mL/min
  Renal Clearance, median: 47.8 mL/min
[1]; [9]
  Renal Clearance, geometric mean: 65.948 mL/min
  Renal Clearance, mean: 71.585 mL/min
  Renal Clearance, median: 58.237 mL/min
[1]; [10]
  Renal Clearance, geometric mean: 65.95 mL/min
  Renal Clearance, mean: 71.585 mL/min
  Renal Clearance, median: 58.23 mL/min
[2]; [11]
  AUC0→t (Geometric mean): 589.5 ng·h/mL
  AUC0→t (Max): 2126 ng·h/mL
  AUC0→t (Mean): 762.1 ng·h/mL
  AUC0→t (Median): 616 ng·h/mL
  AUC0→t (Min): 167.4 ng·h/mL
  AUC0→∞ (Geometric mean): 639.2 ng·h/mL
  AUC0→∞ (Max): 2284 ng·h/mL
  AUC0→∞ (Mean): 823.8 ng·h/mL
  AUC0→∞ (Median): 676 ng·h/mL
  AUC0→∞ (Min): 166.1 ng·h/mL
  Clast (Geometric mean): 4 ng/mL and 3.96 ng/mL
  Clast (Max): 13.60 ng/mL
  Clast (Mean): 5.08 ng/mL
  Clast (Median): 4.34 ng/mL
  Clast (Min): 1.32 ng/mL
  Cmax (Geometric mean): 40.9 ng/mL
  Cmax (Max): 158.0 ng/mL
  Cmax (Mean): 55.7 ng/mL
  Cmax (Median): 42.1 ng/mL
  Cmax (Min): 9.0 ng/mL
  Tlast (Geometric mean): 32.0 h
  Tlast (Max): 32.0 h
  Tlast (Mean): 32.0 h
  Tlast (Median): 32.0 h
  Tlast (Min): 1920 min
  Tmax (Geometric mean): 2.75 h
  Tmax (Max): 6.00 h
  Tmax (Mean): 3.22 h
  Tmax (Median): 2.5 h
  Tmax (Min): 75 min
  t1/2 (Geometric mean): 8.429 h
  t1/2 (Max): 9.79 h
  t1/2 (Mean): 8.47 h
  t1/2 (Median): 8.32 h
  t1/2 (Min): 442 min
[2]; severe renal impairment vs normal renal function
  geometric mean AUClast, fold higher than in normal subjects: more than 3.5 fold
[2]; [12]
  AUC0→t (Geometric mean): 2091 ng·h/mL
  AUC0→t (Max): 6242 ng·h/mL
  AUC0→t (Mean): 2733.6 ng·h/mL
  AUC0→t (Median): 1758 ng·h/mL
  AUC0→t (Min): 605.7 ng·h/mL
  Clast (Geometric mean): 41.3 ng/mL
  Clast (Max): 133.0 ng/mL
  Clast (Mean): 54.36 ng/mL
  Clast (Median): 35.7 ng/mL
  Clast (Min): 14.50 ng/mL
  Cmax (Geometric mean): 90.5 ng/mL
  Cmax (Max): 290.0 ng/mL
  Cmax (Mean): 120.4 ng/mL
  Cmax (Median): 75.8 ng/mL
  Cmax (Min): 23.7 ng/mL
  Tlast (Geometric mean): 32.0 h
  Tlast (Max): 32.0 h
  Tlast (Mean): 32.0 h
  Tlast (Median): 32.0 h
  Tlast (Min): 1920 min
  Tmax (Geometric mean): 6.13 h
  Tmax (Max): 12.0 h
  Tmax (Mean): 6.625 h
  Tmax (Median): 6.0 h
  Tmax (Min): 180 min
  t1/2 (Geometric mean): 24.65 h
  t1/2 (Max): 31.62 h
  t1/2 (Mean): 24.97 h
  t1/2 (Median): 24.0 h
  t1/2 (Min): 1191 min
[3]; normal renal function
  0-32 h Urinary Recovery (geometric mean): 2106 µg
  0-32 h Urinary Recovery (mean): 2764 µg
  0-32 h Urinary Recovery (median): 1483 µg
  Renal Clearance, CLr (geometric mean): 3.61 L/h
  Renal Clearance, CLr (mean): 3.77 L/h
  Renal Clearance, CLr (median): 4.01 L/h
  Renal Clearance, geometric mean: 60.14 mL/min
  Renal Clearance, mean: 62.78 mL/min
  Renal Clearance, median: 66.86 mL/min
  0 to 32 hour urinary recovery (geometric mean): 1.55 % of administered dose
  0 to 32 hour urinary recovery (mean): 2.03 % of administered dose
  0 to 32 hour urinary recovery (median): 1.089 % of administered dose
[3]; [13]
  0 to 32 hour urinary recovery (geometric mean): 1.546 % of administered dose
  0 to 32 hour urinary recovery (mean): 2.029 % of administered dose
[3]; severe renal impairment
  0-32 h Urinary Recovery (geometric mean): 3126 µg
  0-32 h Urinary Recovery (mean): 3738 µg
  0-32 h Urinary Recovery (median): 2709 µg
  Renal Clearance, CLr (geometric mean): 0.854 L/h
  Renal Clearance, CLr (mean): 0.919 L/h
  Renal Clearance, CLr (median): 0.824 L/h
  Renal Clearance, geometric mean: 14.2 mL/min
  Renal Clearance, mean: 15.3 mL/min
  Renal Clearance, median: 13.7 mL/min
  0 to 32 hour urinary recovery (geometric mean): 2.29 % of administered dose
  0 to 32 hour urinary recovery (mean): 2.74 % of administered dose
  0 to 32 hour urinary recovery (median): 1.988 % of administered dose
[3]; [14]
  0 to 32 hour urinary recovery (geometric mean): 2.294 % of administered dose
  0 to 32 hour urinary recovery (mean): 2.744 % of administered dose
[4]
  solubility in water: approximately 40 mg/mL
